Measured values from patent publication US20140024683A1, “CHLORIDE CHANNEL AND CHLORIDE TRANSPORTER MODULATORS FOR THERAPY IN SMOOTH MUSCLE DISEASES” (priority 2011, published 2014).

Tests used:
[1] = test system: guinea pig tracheal rings; experiment: Potentiation of isoproterenol relaxation of acetylcholine contraction, guinea pig tracheal rings; conditions: 10 μM bumetanide
Protocol: (§1) Animal protocols were approved by the Columbia University Animal Care and Use Committee. Male Hartley guinea pigs weighing approximately 400 g were anesthetized with intraperitoneal injection of sodium pentobarbital (100 mg/kg). Trachea were removed and transferred to ice cold Krebs-Henseleit (KH) buffer of the following composition (in mM): NaCl 118, KCl 5.6, CaCl2 0.5, MgSO4 0.24, NaH2PO4 1.3, NaHCO3 25, glucose 5.6, pH 7.4. Epithelial-denuded tracheal rings were prepared using a dissecting microscope. Epithelium was removed by gently passing cotton fibers through the lumen of the tracheal rings. The rings were suspended in 4 mL-water jacketed organ baths (37° C.: Radnoti Glass Technology, Monrovia, Calif.) and connected to a Grass FT03 force transducer (Grass Telefactor, West Warwick, R.I.) using silk sutures. The transducers were coupled to the computer with BioPac hardware and data was collected using Acqknowledge 7.3.3 software (BioPac Systems, Goleta, Calif.). KH buffer was bubbled with a gas mixture of 95% oxygen and 5% carbon dioxide and buffer was exchanged every 15 minutes for 1 hour during equilibration of tracheal rings at 1 g resting tension. […].
Therefore, we tested whether the chloride channel blockers or modulation of chloride flux could be used in combination with β-agonists to potentiate their effects. […]. Therefore, a combination of treatment with compound 13 and bumetanide potentiated the relaxation effect of isoproterenol.

[2] = test system: guinea pig tracheal rings; experiment: Relaxation of the maintenance phase of a pre-established acetylcholine contraction, guinea pig tracheal rings; conditions: alone; pre-contracted with EC50 acetylcholine
Protocol: as §1
Chloride channel blockers were then tested against the plateau phase of an established acetylcholine contraction. […]

[3] = test system: guinea pig tracheal rings; experiment: Relaxation of potassium gluconate contraction in guinea pig tracheal rings; conditions: 100 μM, 80 mM potassium gluconate
Protocol: as §1
Many chloride channel blockers are known to also stimulate potassium channels (Greenwood et al., 2007). Thus, we performed additional studies in the presence of a large extracellular concentration of potassium to ensure that our findings of compound 1 or 13 inhibiting a TEA-induced depolarizing contraction were not due to these compounds opening a potassium channel.

[4] = test system: calcium activated chloride channel; experiment: Whole cell voltage clamp, spontaneous transient inward currents (STICs) in a single guinea pig airway smooth muscle cell; type: cell-based; conditions: about 100 μM bath application after TEA; holding potential about −60 mV
Source text: Epithelial denuded guinea pig tracheal rings were suspended in organ baths under 1 g resting tension with continuous digital recordings of muscle force. In separate studies, guinea pig airway smooth muscle cells were enzymatically dispersed and cultured.
Glass-bottom dishes served as a disposable recording chamber. ALA VM-8, an 8-chamber pressure-driven drug application system, was used in a still bath of extracellular salt solution. Whole-cell intracellular voltage recordings under current clamp conditions were performed with a 2-kHz Bessel filter, recording at 10 kHz using an Axopatch 200b amplifier (Axon Instruments, Foster City, Calif., USA). Electrodes were pulled using a P-97 micropipette puller from 1.5-mm OD borosilicate capillary glass (Sutter Instruments, Novato, Calif., USA). Glass electrode resistances ranged from 5 to 10 MO with intracellular solution. Whole-cell intracellular current recordings under voltage-clamp conditions were performed with a 2-kHz Bessel filter, recording at 10 kHz using an Axopatch 200b amplifier. For current measurements (FIG. 11) intracellular solutions consisted of (in mM) 140 TEA-Cl, 5 MgATP, 5 EGTA, 1 MgCl2, 10 HEPES, and 5 CaCl2 (pH 7.2). […] TEA-Cl was included in the buffer to enhance STICs which were then recorded during the addition of 100 μM niflumic acid. […] All recordings were analyzed on Clampfit 8.0 software (Molecular Devices).

[5] = test system: human airway smooth muscle cells; experiment: Whole cell current clamp recording of membrane potential; type: cell-based
Protocol: Induced electrophysiological changes in membrane potential and current were measured using traditional whole cell patch clamp methods. Immortalized human airway smooth muscle cells were grown to confluence on collagen-treated T25 flasks. Collagenase type IV in SmBM2 medium (Lonza, Walkersville, Md.) was used to release cells adherent to the collagen matrix in the flask. Medium with cells in suspension was then harvested in a 10-ml conical tube and centrifuged at 300×g. Supernatant was removed, and the pellet was resuspended in SmBM2 medium and transferred into collagen-treated glass bottom 1-cm Petri dishes at about 10% confluence. Each dish was then incubated at 37° C. and 5% CO2 for 1-4 hours for reattachment of cells to glass-bottom Petri dishes.
Glass-bottom dishes served as a disposable recording chamber. ALA VM-8, an 8-chamber pressure-driven drug application system, was used in a still bath of extracellular salt solution. Whole-cell intracellular voltage recordings under current clamp conditions were performed with a 2-kHz Bessel filter, recording at 10 kHz using an Axopatch 200b amplifier (Axon Instruments, Foster City, Calif., USA). Electrodes were pulled using a P-97 micropipette puller from 1.5-mm OD borosilicate capillary glass (Sutter Instruments, Novato, Calif., USA). Glass electrode resistances ranged from 5 to 10 MO with intracellular solution. Whole-cell intracellular current recordings under voltage-clamp conditions were performed with a 2-kHz Bessel filter, recording at 10 kHz using an Axopatch 200b amplifier. For current measurements (FIG. 11) intracellular solutions consisted of (in mM) 140 TEA-Cl, 5 MgATP, 5 EGTA, 1 MgCl2, 10 HEPES, and 5 CaCl2 (pH 7.2). Extracellular solution consisted of (in mM) 134 NaCl, 1.4 KCl, 10 HEPES, 1 MgCl2, 1.8 CaCl2, and 10 glucose (pH 7.4). This induced the classic spontaneously transient inward currents (STICs) and spontaneously transient outward currents (STOCs) well described in this cell type. STOCs are believed to represent activation of calcium activated potassium (KCa) channels while STICs are believed to represent activation of CaCCs. TEA-Cl was included in the buffer to enhance STICs which were then recorded during the addition of 100 μM niflumic acid. When recording TEA- and niflumic acid-induced responses on membrane potential (ΔmV), the intracellular solutions contained (in mM) 140 KCl, 5 MgATP, 5 EGTA, 1 MgCl2, 10 HEPES, and 5 CaCl2 (pH 7.2), and the extracellular solutions consisted of (in mM) 134 NaCl, 5 MgATP, 5 EGTA, 1 MgCl2, 10 HEPES, and 5 CaCl2 (pH 7.2). All recordings were analyzed on Clampfit 8.0 software (Molecular Devices).

shift of the EC50 of isoproterenol [1] [fold]	SMILES	relaxation of established acetylcholine contraction [2]	percent of potassium gluconate-induced contraction at 30 minutes [3]	percent of potassium gluconate-induced contraction at 30 minutes ([3]; listed as NFA)	spontaneous transient inward currents (STICs) [4]	membrane potential (whole cell current clamp) ([5]; 100 μM niflumic acid)	membrane potential (whole cell current clamp) after depolarization ([5]; following depolarization with TEA chloride)
2.4	CCCCNc1cc(C(=O)O)cc(S(N)(=O)=O)c1Oc1ccccc1 [bumetanide]	significantly relaxed an acetylcholine contraction					
	O=C(O)c1cccnc1Nc1cccc(C(F)(F)F)c1 [niflumic acid]		47.36%±4.6	47.4%±4.6	abolishes STIC's	hyperpolarizes the plasma membrane	reverses membrane potential
